Reference: US20230357248A1, “PYRROLOPYRIMIDINE COMPOUND AS BTK INHIBITOR AND USE THEREOF” (MEDSHINE DISCOVERY INC., priority 2019, published 2023)
Marks after values point to notes of the source that are not given here.

Legend:
BTK^C481S = BTK^C481S (Homo sapiens (Human), UniProt Q06187, C481S); assay: BTK enzyme activity assay; format: biochemical; settings: 200 μM ATP; 33P-ATP, filter-binding method
Experimental: The specific assay process of BTK enzyme activity assay is as follows: Buffer: 20 mM 2-[4-(2-hydroxyethyl)-1-piperazinyl]ethanesulfonic acid (Hepes) (pH 7.5), 10 mM magnesium chloride, 1 mM ethylenebis(oxyethylenenitrilo)tetraacetic acid (EGTA), 0.02% polyoxyethylene dodecyl ether (Brij35), 0.02 mg/mL BSA, 0.1 mM sodium vanadate (Na3VO4), 2 mM dithiothreitol (DTT), 1% DMSO, 200 μM adenosine triphosphate (ATP). • 1. The substrate was prepared in freshly prepared reaction buffer; • 2. The required cofactor was added to the above-mentioned substrate solution; • 3. The kinase BTK^C481S was added to the above-mentioned substrate solution and mixed well; • 4. The compound dissolved in DMSO was added to the kinase reaction mixture by Echo550 (Acoustic technology; nanoliter range), and the mixture was incubated at room temperature for 20 minutes; • 5. ^33P-ATP (specific radioactivity of 10 μCi/μL) was added to the reaction mixture to initiate the reaction; • 6. The mixture was incubated at room temperature for 2 hours; • 7. The radioactivity was detected by filter-binding method; • 8. Kinase activity data represented the percentage of remaining kinase activity in the assay sample compared to the vehicle (dimethyl sulfoxide) reaction.

rat plasma protein = assay: In vivo plasma protein binding (PPB) assay in rat; format: in vitro ADME; settings: rat in vivo plasma samples; dialysis 4 h 37° C.; average of 3 or 4 results
Experimental: 1.1 Preparation of Dialysis Membrane and Matrix
On the day of the assay, frozen plasma was thawed in running cold tap water. After the plasma was completely thawed, the plasma was centrifuged at 3220×g for 5 min, and suspensions and sediments in the plasma were removed.
A double-layer dialysis membrane was soaked in ultrapure water for about 1 h, and then taken out. The double-layer dialysis membrane was divided into two parts, and then soaked in ethanol-water (20:80, v:v) solution for 20 min or placed at 2-8° C. with a validity period of 1 month. Before the start of the assay, the dialysis membrane was rinsed twice with ultrapure water and soaked in ultrapure water for another 20 min for use.
1.2 The Mixing Steps of Compound Sample and the Dilution Process of Control Compound
1.2.1 The Mixing Steps of Compound Sample
An appropriate amount of original samples were transferred to a collection tube of mixed samples, and the samples in the collection tube of mixed samples were mixed thoroughly.
1.2.2 The Dilution Process of the Control Compound
The control compound was dissolved in dimethyl sulfoxide to obtain a 10 mM stock solution. A working solution of 400 μM was obtained by dilution with dimethyl sulfoxide. Preparation process of plasma sample: 995 μL of blank plasma was weighed, and 5 μL of warfarin working solution was added. […]

[1] = Plasma protein binding (PPB) assay, M; format: in vitro ADME; settings: mouse, dialysis 4 hr 37° C.
Experimental: (§1) Assay procedure: 995 μL of blank plasma of various genera were weighed, and 5 μL of assay compound working solution (400 μM) or warfarin working solution (400 μM) was added so that the final concentrations of the assay compound and warfarin in plasma sample were each 2 μM. The samples were mixed thoroughly. The final concentration of DMSO (the organic phase) was 0.5%. 50 μL of the plasma samples of the assay compound and warfarin were pipetted to a sample receiving plate (in triplicate), and the corresponding volume of corresponding blank plasma or buffer was added immediately, so that the final volume in each sample well was 100 μL, wherein the volume ratio of plasma:dialysis buffer was 1:1. 500 μL of stop solution was then added to these samples. These samples were used as T0 samples for determination of recovery and stability. […] All samples were subjected to protein precipitation, and then analyzed by LC/MS/MS. Bound rate and recovery rate of protein were calculated using the following formulae: % Unbound=100*F/T, % Bound=100−% Unbound, % Recovery=100*(F+T)/T0 (wherein F is the peak area ratio of the compound in the dialysate after 4 h of dialysis; T is the peak area ratio of the compound in the plasma after 4 h of dialysis; To is the peak area ratio of the compound in the plasma sample at time zero).

[2] = Plasma protein binding (PPB) assay, R; format: in vitro ADME; settings: rat, dialysis 4 hr 37° C.
Experimental: as §1

Chain of BTK^C481S (Q06187 whole entry C481S): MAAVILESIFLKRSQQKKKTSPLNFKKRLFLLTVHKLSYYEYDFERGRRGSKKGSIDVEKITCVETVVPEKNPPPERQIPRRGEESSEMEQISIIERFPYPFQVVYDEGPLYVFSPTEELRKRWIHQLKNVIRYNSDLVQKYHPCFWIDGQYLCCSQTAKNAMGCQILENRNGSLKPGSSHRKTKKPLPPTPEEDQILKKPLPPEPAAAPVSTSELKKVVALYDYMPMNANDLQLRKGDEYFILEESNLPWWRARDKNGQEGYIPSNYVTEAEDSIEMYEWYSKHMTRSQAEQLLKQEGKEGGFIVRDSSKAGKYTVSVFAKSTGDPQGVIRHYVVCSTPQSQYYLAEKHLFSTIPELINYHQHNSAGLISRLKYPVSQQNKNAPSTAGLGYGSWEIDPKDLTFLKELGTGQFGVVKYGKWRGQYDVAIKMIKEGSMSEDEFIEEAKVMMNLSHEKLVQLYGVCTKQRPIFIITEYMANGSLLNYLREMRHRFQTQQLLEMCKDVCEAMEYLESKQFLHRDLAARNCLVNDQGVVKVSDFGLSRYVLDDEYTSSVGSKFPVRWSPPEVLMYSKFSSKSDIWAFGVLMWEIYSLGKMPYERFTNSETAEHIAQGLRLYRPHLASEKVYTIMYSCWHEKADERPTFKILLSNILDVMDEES

IC50 (BTK^C481S): 7.3 nM
Unbound PPB (rat plasma protein): 0.2% ^a
fraction unbound at 4 h, 2 μM [1]: 0.004
fraction unbound at 4 h, 2 μM [2]: 0.002
Structure (SMILES): CO[C@@H]1C[C@@H](CO)OC[C@@H]1Nc1ncnc2[nH]cc(C(=O)c3ccc(Oc4ccccc4)cc3Cl)c12 [Compound 4]
